Assay: xn = mol fraction of the nth substance listed

CCCC[N+](CCCC)(CCCC)CCCC.[Cl-] + C[C@@H](O)[C@H](N)C(=O)O
101 kPa
Conditions	electrical conductivity, x2 = 0.09091 [S/m]	electrical conductivity, x2 = 0.1 [S/m]	electrical conductivity, x2 = 0.1111 [S/m]	viscosity, x2 = 0.09091 [mPa·s]	viscosity, x2 = 0.1 [mPa·s]	viscosity, x2 = 0.1111 [mPa·s]
303.15 K	0.0086	0.0049	0.0067	223	179	1020
313.15 K	0.0157	0.0117	0.0135	131	104	630
323.15 K	0.0279	0.0199	0.0236	73	68	322
333.15 K	0.039	0.0311	0.036	46	43	186
343.15 K	0.045	0.0402	–	34	31	109
353.15 K	0.0583	0.0516	0.0569	24	24	63

CCCC[NH3+].O=[N+]([O-])[O-] + CC[NH3+].O=[N+]([O-])[O-]
electrical conductivity [S/m], 101 kPa, frequency 0.00293 MHz
Conditions	303.15 K	308.15 K	323.15 K
x2 = 0.25	–	0.88	1.38
x2 = 0.75	1.68	–	–

101 kPa
Conditions	viscosity [mPa·s]
303.15 K, x2 = 0.75	42.1
308.15 K, x2 = 0.25	56.1
323.15 K, x2 = 0.25	33.7
333.15 K, x2 = 0.25	25.2
338.15 K, x2 = 0.25	22
338.15 K, x2 = 0.75	15.5
343.15 K, x2 = 0.25	19.4
353.15 K, x2 = 0.25	15.4
353.15 K, x2 = 0.5	13.3

CCCC[N+](CCCC)(CCCC)CCCC.[Cl-] + CNCCO
101.3 kPa
Conditions	viscosity [mPa·s]
293.15 K, x1 = 0.09104	29.5
298.15 K, x1 = 0.09104	22.9
298.15 K, x1 = 0.111	26.1
303.15 K, x1 = 0.1441	27
308.15 K, x1 = 0.1441	21.1
313.15 K, x1 = 0.1441	17.1
318.15 K, x1 = 0.09104	11.4
328.15 K, x1 = 0.111	7.84

CCCC[N+](CCCC)(CCCC)CCCC.[Cl-] + OCCOCCOCCO
Conditions	electrical conductivity, 293.15 K [S/m]	electrical conductivity, 303.15 K [S/m]	electrical conductivity, 313.15 K [S/m]	electrical conductivity, 323.15 K [S/m]	electrical conductivity, 333.15 K [S/m]	viscosity, 293.15 K [mPa·s]	viscosity, 303.15 K [mPa·s]	viscosity, 313.15 K [mPa·s]	viscosity, 323.15 K [mPa·s]	viscosity, 333.15 K [mPa·s]
100 kPa, x1 = 0.1667	0.0683	0.099	0.141	0.196	0.268	126	82.6	55.6	38.4	27.1
100 kPa, x1 = 0.333	0.049	0.0739	0.109	0.156	0.219	277	179	119	81.4	56.8
101 kPa, x2 = 0.25	–	–	–	–	–	–	–	–	910	–

CCCC[n+]1ccn(C)c1.[Br-] + N[C@@H](Cc1ccccc1)C(=O)O + O
viscosity [mPa·s], 101.3 kPa
Conditions	293.15 K	298.15 K	303.15 K	308.15 K	313.15 K
x2 = 0, x1 = 0.0007203	–	–	–	–	0.67
x2 = 0.0003641, x1 = 0.00072	1	0.97	0.88	0.77	0.68
x2 = 0.0003648, x1 = 0.001439	0.99	0.9	0.8	0.66	0.59
x2 = 0.0007259, x1 = 0.0007198	1.02	0.98	0.89	0.78	0.69
x2 = 0.0007309, x1 = 0.001438	1	0.91	0.81	0.68	0.6
x2 = 0.001089, x1 = 0.0007195	1.03	0.99	0.91	0.8	0.7
x2 = 0.001097, x1 = 0.001438	1.02	0.92	0.82	0.69	0.61
x2 = 0.00145, x1 = 0.0007192	1.04	1	0.92	0.81	0.72
x2 = 0.001463, x1 = 0.001437	1.03	0.93	0.83	0.7	0.63
x2 = 0.001814, x1 = 0.000719	1.05	1.02	0.93	0.82	0.73
x2 = 0.001827, x1 = 0.001437	1.04	0.95	0.85	0.71	0.64
x2 = 0.002174, x1 = 0.0007187	1.07	1.03	0.95	0.84	0.74
x2 = 0.002193, x1 = 0.001436	1.06	0.96	0.86	0.73	0.65
x2 = 0.002537, x1 = 0.0007185	1.08	1.04	0.96	0.85	0.76
x2 = 0.002556, x1 = 0.001436	1.07	0.97	0.87	0.74	0.67

Reference: the CheMixHub ionic liquid set
